From ChEMBL document CHEMBL1201862, “PubChem BioAssay data set” (2004)
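Interpolation was linear, between the two tested concentrations surrounding the appropriate level; five concentrations were tested over 48 hours in 96-well plates. GI50 = concentration required for 50% inhibition of growth.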 Calls of active or inactive are those of the source. Rule as the data show it: active = GI50 up to about 1.1 µM and inactive = higher.

How the values were obtained:
Experiment in all cases: NCI-60 cell line screen, 48 h
KM12 = test system: KM12
SK-MEL-28 = test system: SK-MEL-28
SF-268 = test system: SF-268
SR = test system: SR
SK-MEL-5 = test system: SK-MEL-5
HOP-92 = test system: HOP-92
786-0 = test system: 786-0
U-251 = test system: U-251
A549 = test system: A549
UO-31 = test system: UO-31
OVCAR-4 = test system: OVCAR-4
T47D = test system: T47D
SF-295 = test system: SF-295
MDA-N = test system: MDA-N
MCF7 = test system: MCF7
Malme-3M = test system: Malme-3M
DU-145 = test system: DU-145
OVCAR-8 = test system: OVCAR-8
HOP-62 = test system: HOP-62
SK-OV-3 = test system: SK-OV-3
MDA-MB-231 = test system: MDA-MB-231
RPMI-8226 = test system: RPMI-8226
TK-10 = test system: TK-10
RXF 393 = test system: RXF 393
SK-MEL-2 = test system: SK-MEL-2
SNB-19 = test system: SNB-19
Hs-578T = test system: Hs-578T
K562 = test system: K562
HCC 2998 = test system: HCC 2998
A498 = test system: A498
MDA-MB-435 = test system: MDA-MB-435
UACC-257 = test system: UACC-257
M14 = test system: M14
EKVX = test system: EKVX
NCI/ADR-RES = test system: NCI/ADR-RES
HT-29 = test system: HT-29
NCI-H522 = test system: NCI-H522
MOLT-4 = test system: MOLT-4
SNB-75 = test system: SNB-75
CAKI-1 = test system: CAKI-1
UACC-62 = test system: UACC-62
COLO 205 = test system: COLO 205
OVCAR-5 = test system: OVCAR-5
PC-3 = test system: PC-3
IGROV-1 = test system: IGROV-1
HCT-15 = test system: HCT-15
NCI-H23 = test system: NCI-H23
OVCAR-3 = test system: OVCAR-3
ACHN = test system: ACHN
SW-620 = test system: SW-620
BT-549 = test system: BT-549
HCT-116 = test system: HCT-116
NCI-H460 = test system: NCI-H460

Measured: GI50

COCN(CCC1=CCCCC1)C(=O)OC
> 100 µM: HCT-15
inactive: KM12 > 100 µM | SK-MEL-28 > 100 µM | SF-268 > 100 µM | SR > 100 µM | SK-MEL-5 81.7 µM | HOP-92 > 100 µM | 786-0 > 100 µM | U-251 > 100 µM | A549 > 100 µM | UO-31 46.3 µM | OVCAR-4 > 100 µM | T47D 89.1 µM | SF-295 28.2 µM | MDA-N > 100 µM | MCF7 43.1 µM | Malme-3M > 100 µM | DU-145 49.8 µM | OVCAR-8 > 100 µM | HOP-62 > 100 µM | SK-OV-3 > 100 µM | MDA-MB-231 > 100 µM | RPMI-8226 > 100 µM | TK-10 > 100 µM | RXF 393 > 100 µM | SK-MEL-2 > 100 µM | SNB-19 > 100 µM | Hs-578T > 100 µM | K562 61.5 µM | HCC 2998 > 100 µM | A498 > 100 µM | MDA-MB-435 > 100 µM | UACC-257 > 100 µM | M14 > 100 µM | EKVX > 100 µM | NCI/ADR-RES > 100 µM | HT-29 > 100 µM | NCI-H522 38.1 µM | MOLT-4 > 100 µM | SNB-75 > 100 µM | CAKI-1 > 100 µM | UACC-62 > 100 µM | COLO 205 > 100 µM | OVCAR-5 > 100 µM | PC-3 > 100 µM | IGROV-1 > 100 µM | NCI-H23 51.6 µM | OVCAR-3 76.7 µM | ACHN > 100 µM | SW-620 > 100 µM | BT-549 > 100 µM | HCT-116 41.4 µM | NCI-H460 29.9 µM
